# Measured values reported in ChEMBL document CHEMBL1255486, “Effect of vicriviroc on the QT/corrected QT interval and central nervous system in healthy subjects” (Antimicrob Agents Chemother, 2010).
# What was measured:
# Parameters in all cases: dose 400 mg/kg, route oral
# Conditions in all cases: in vivo
# [1] = system: Homo sapiens; test: Cardiotoxicity in healthy human assessed as change in corrected QT interval at 400 mg/kg, po within 12 hrs by ECG; type: toxicity, organism-based
# [2] = system: Homo sapiens; test: Toxicity in healthy human assessed as diarrhea at 400 mg/kg, po administered as single dose; type: organism-based
# [3] = system: Homo sapiens; test: Toxicity in healthy human assessed as abdominal pain at 400 mg/kg, po administered as single dose; type: organism-based, Abdomen
# [4] = system: Homo sapiens; test: Toxicity in healthy human assessed as dizziness at 400 mg/kg, po administered as single dose; type: organism-based
# [5] = system: Homo sapiens; test: Toxicity in healthy human assessed as nausea at 400 […], po administered as single dose; type: organism-based
# [6] = system: Homo sapiens; test: Cardiotoxicity in healthy human assessed as change in corrected QT interval at 400 mg/kg, po within 3 hrs by ECG; type: toxicity, organism-based
# [7] = system: Homo sapiens; test: Toxicity in healthy human assessed as headache at 400 […], po administered as single dose; type: organism-based
structure (smiles),measurement,setting,value
COc1c(N2C[C@@H]3CCCN[C@@H]3C2)c(F)cc2c(=O)c(C(=O)O)cn(C3CC3)c12 [MOXIFLOXACIN],QTc change,[1],10 ms
same,Activity,[2],3%
same,Activity,[3],5%
same,Activity,[4],0%
same,Activity,[5],3%
same,Activity,[6],Non-toxic
same,Activity,[7],5%
